# Test results taken from publication PMC7281072 (Cancers, 2020).
# Assays:
# [1] = tested on: SKOV-3 human ovarian adenocarcinoma xenograft; parameters: species or system CB17 SCID mice; conditions: mouse, in vivo, ip
# [2] = tested on: AKT1,2 phosphorylation; assay: AKT phosphorylation ELISA, OVCAR-5 cells; assay type: cell-based, human; conditions: for Vmax ± SE, pAKT 1/2 inhibition: Michaelis Menten model; for IC50: Homo sapiens, read-out: IC50, pAKT 1/2 inhibition
# [3] = tested on: OVCAR-5 cancer cell line
# [4] = tested on: OVCAR-5 cancer cell line; assay: cells; conditions: Homo sapiens, OVCAR-5, 48 h
# [5] = tested on: pERK1,2; assay: Western immunoblotting densitometry, pERK1,2, SKOV-3 cells; assay type: cell-based, human; conditions: 25 μM; for ratio [pERK1+pERK2]/[GAPDH] band intensity: SKOV-3 cells; for ratio [pERK1+pERK2]/[GAPDH] band intensity, single blot (panel A): panel A lower set, cell line not given
# [6] = tested on: OVCAR-5 human ovarian adenocarcinoma xenograft; parameters: species or system CB17 SCID mice; conditions: mouse, in vivo
# [7] = tested on: ERK1,2 phosphorylation; assay: ERK1/2 phosphorylation ELISA, OVCAR-5 cells; assay type: cell-based, human; conditions: for Vmax ± SE, pERK 1/2 inhibition: Michaelis Menten model; for IC50: Homo sapiens, read-out: IC50, pERK 1/2 inhibition
# [8] = tested on: pAKT; assay: Western immunoblotting densitometry, pAKT, OVCAR-3 cells; assay type: cell-based, human; conditions: 25 μM; for ratio [pAKT]/[GAPDH] band intensity: OVCAR-3 cells; for ratio [pAKT]/[GAPDH] band intensity, single blot (panel A): panel A upper set, cell line not given, control ratio 1.21
# [9] = tested on: CB17 SCID mice; conditions: both, mouse, in vivo, ip
# [10] = tested on: ERK1,2 phosphorylation; assay: ERK1/2 phosphorylation ELISA, UWB1.289 cells; assay type: cell-based, human; conditions: for Vmax ± SE, pERK 1/2 inhibition: Michaelis Menten model; for IC50: Homo sapiens, read-out: IC50, pERK 1/2 inhibition
# [11] = tested on: OVCAR-3 cancer cell line; assay: cells; conditions: Homo sapiens, OVCAR-3, 48 h
# [12] = tested on: UWB1.289+BRCA1 cancer cell line
# [13] = tested on: AKT1,2 phosphorylation; assay: AKT phosphorylation ELISA, UWB1.289+BRCA1 cells; assay type: cell-based, human; parameters: Vmax ± SE, pAKT 1/2 inhibition: unit not given beside the values; conditions: for Vmax ± SE, pAKT 1/2 inhibition: Michaelis Menten model; for IC50: Homo sapiens, read-out: IC50, pAKT 1/2 inhibition
# [14] = read-out: GI50 (50% Growth Inhibition)
# [15] = read-out: IC50 (cytotoxic effect)
smiles,measurement,setting,value
"C[C@]12CC[C@@H]3c4ccc(OC(=O)CCOc5ccc(N(CCCl)CCCl)cc5)cc4CC[C@H]3[C@@H]1CCC(=O)N2 [ENGA-L08E, 12a-methyl-2-oxo-1,2,3,4,4a,4b,5,6,10b,11,12,12a-dodecahydronaphtho[2,1-f]quinolin-8-yl 3-(4-(bis (2-chloroethyl)amino)phenoxy) propanoate]",size of the primary tumor,[1],390 ± 21.4 mm^3
same,"Vmax ± SE, pAKT 1/2 inhibition",[2]; 15 min,60.45 ± 3.65
same,"Vmax ± SE, pAKT 1/2 inhibition",[2]; 30 min,61.17 ± 0.62
same,"Vmax ± SE, pAKT 1/2 inhibition",[2]; 60 min,61.47 ± 2.03
same,IC50,"[2]; 0.25 h, 15 min",> 50 µM
same,IC50,"[2]; 0.5 h, 30 min",34.2 µM
same,IC50,"[2]; 1 h, 60 min",28.3 µM
same,TGI (Total Growth Inhibition),[3],60 ± 2.7 μΜ
same,GI50,[4]; [14],11 ± 0.6 µM
same,IC50,[4]; [15],92 ± 8.4 µM
same,ratio [pERK1+pERK2]/[GAPDH] band intensity,"[5]; 15min, control ratio 1.70",1.89
same,ratio [pERK1+pERK2]/[GAPDH] band intensity,"[5]; 30min, control ratio 1.70",1.61
same,ratio [pERK1+pERK2]/[GAPDH] band intensity,"[5]; 1h, control ratio 1.78",1.08
same,ratio [pERK1+pERK2]/[GAPDH] band intensity,"[5]; 3h, control ratio 1.74",0.89
same,ratio [pERK1+pERK2]/[GAPDH] band intensity,"[5]; 12h, control ratio 1.61",0.85
same,"ratio [pERK1+pERK2]/[GAPDH] band intensity, single blot (panel A)","[5]; 1h, control ratio 1.78",0.54
same,"ratio [pERK1+pERK2]/[GAPDH] band intensity, single blot (panel A)","[5]; 3h, control ratio 1.78",0.49
same,Median Overall Survival (OS),[6],127 days
same,Progression Free Survival (PFS),[6],34 days
same,Response Rate (RR),[6],100%
same,Cures (mice alive for 120 days after tumor inoculation),[6]; ip,3/5
same,MST (mean survival time),[6]; ip,94.8 ± 6.3 p < 0.01 Days
same,T/C% (mean survival time of treated versus saline controls),[6]; ip,187.8%
same,TI% (Tumor Inhibition),[6]; ip,131.0%
same,size of the primary tumor,[6]; ip,113 ± 14 mm^3
same,"Vmax ± SE, pERK 1/2 inhibition",[7]; 15 min,63.85 ± 3.62
same,"Vmax ± SE, pERK 1/2 inhibition",[7]; 30 min,67.94 ± 4.54
same,"Vmax ± SE, pERK 1/2 inhibition",[7]; 60 min,69.19 ± 2.95
same,IC50,"[7]; 0.25 h, 15 min",32.4 µM
same,IC50,"[7]; 0.5 h, 30 min",17 µM
same,IC50,"[7]; 1 h, 60 min",10.9 µM
same,ratio [pAKT]/[GAPDH] band intensity,"[8]; 30min, control ratio 1.23",0.93
same,ratio [pAKT]/[GAPDH] band intensity,"[8]; 1h, control ratio 1.14",0.60
same,ratio [pAKT]/[GAPDH] band intensity,"[8]; 3h, control ratio 1.27",0.52
same,ratio [pAKT]/[GAPDH] band intensity,"[8]; 6h, control ratio 1.26",0.47
same,ratio [pAKT]/[GAPDH] band intensity,"[8]; 12h, control ratio 1.18",0.48
same,ratio [pAKT]/[GAPDH] band intensity,"[8]; 24h, control ratio 1.29",0.54
same,"ratio [pAKT]/[GAPDH] band intensity, single blot (panel A)",[8]; 1h,0.40
same,"ratio [pAKT]/[GAPDH] band intensity, single blot (panel A)",[8]; 3h,0.34
same,LD10,[9],75 mg/kg
same,"Vmax ± SE, pERK 1/2 inhibition",[10]; 15 min,73.97 ± 1.64
same,"Vmax ± SE, pERK 1/2 inhibition",[10]; 60 min,88.83 ± 2.13
same,IC50,"[10]; UWB1289, 0.25 h, 15 min",7.02 µM
same,IC50,"[10]; UWB1289, 0.5 h, 30 min",4.25 µM
same,IC50,"[10]; UWB1289, 1 h, 60 min",3.67 µM
same,GI50,[11]; [14],30 ± 2.1 µM
same,IC50,[11]; [15],56 ± 3.2 µM
same,TGI (Total Growth Inhibition),[12],76 ± 7.2 μΜ
same,"Vmax ± SE, pAKT 1/2 inhibition",[13]; 15 min,57.59 ± 1.42
same,"Vmax ± SE, pAKT 1/2 inhibition",[13]; 30 min,60.90 ± 3.82
same,"Vmax ± SE, pAKT 1/2 inhibition",[13]; 60 min,63.84 ± 5.49
same,IC50,"[13]; 0.25 h, 15 min",36.2 µM
same,IC50,"[13]; 0.5 h, 30 min",26.6 µM
same,IC50,"[13]; 1 h, 60 min",19.4 µM
